One compound from US8703210B1, “Adding calcium and bicarbonate to human blood” (Sang Lads, Inc., priority 2005, dated 2014) can be followed below.

The structures appear in SMILES notation. Where two headings read alike, the source gives them in different places.

As for `O=C([O-])[O-].[Ca+2]` [Calcium carbonate, calcium carbonate], the pH entry reads like this: (after carbonic acid (in the form of club soda) is added to the mixture) “neutral”; (calcium carbonate powder dissolved into water) ≤ 9.
